Data published in US7763596B2, “Selective glucocorticoid receptor agonists” (The University of Manchester, priority 2000, dated 2010).
Residue numbers refer to the chain shown, from its start.

Columns and labels:
[1] = cited from earlier work
CEM-C7A cells = experiment: Apoptosis assay in CEM-C7A cells (viable cell count, MTS); format: cell-based, human
Experimental: The CEM-C7A cell line is a steroid sensitive clone of the CCRF-CEM cell line (ECACC 85112105). This is a T lymphoblastoid cell line with functional endogenous GR.
Apoptosis (programmed cell death) is mediated by a protein called Bax the transcription of which is primarily controlled by the GR in a ligand dependant manner. To measure the ability of a GR ligand to effect apoptosis a suitable cell line was incubated with ligand and a viable cell count was performed after three days.
CEM-C7A cells were plated out on to a 96well plate at 5×10^5/well. The steroids of FIGS. 1 and 2A were added immediately to generate a final concentration of 100 nM. After a three day incubation the live cell number in each well was assessed using Celltiter 96 Aqueous Non-Radioactive Cell Proliferation Assay (Promega). This assay is a calorimetric method for determining the number of viable cells in proliferation or chemosensitivity assays.
Briefly, the assay is composed of solutions of a novel tetrazolium compound (3-(4,5-dimethylthiazol-2-yl)-5-(3-carboxymethoxyphenyl)-2-(4-sulfophenyl)-2H-tetrazolium, MTS) and an electron coupling reagent (phenazine methosulfate; PMS). MTS is bioreduced by cells into a formazan product that is soluble in tissue culture medium. The absorbance of the formazan at 490 nm can be measured directly from 96 well assay plates without additional processing. The conversion of MTS into aqueous, soluble formazan is accomplished by dehydrogenase enzymes found in metabolically active cells. The quantity of formazan product as measured by the amount of 490 nm absorbance is directly proportional to the number of living cells in culture.

[2] = target: T1, progesterone receptor (PRB) (Homo sapiens, UniProt P06401); experiment: Progestogen activity assay using progesterone receptor transactivation; format: cell-based; settings: unpublished data, conditions not given
T1 construct: expressed in transfected cells; host or cells: COS 7
T1 sequence (P06401 1-933): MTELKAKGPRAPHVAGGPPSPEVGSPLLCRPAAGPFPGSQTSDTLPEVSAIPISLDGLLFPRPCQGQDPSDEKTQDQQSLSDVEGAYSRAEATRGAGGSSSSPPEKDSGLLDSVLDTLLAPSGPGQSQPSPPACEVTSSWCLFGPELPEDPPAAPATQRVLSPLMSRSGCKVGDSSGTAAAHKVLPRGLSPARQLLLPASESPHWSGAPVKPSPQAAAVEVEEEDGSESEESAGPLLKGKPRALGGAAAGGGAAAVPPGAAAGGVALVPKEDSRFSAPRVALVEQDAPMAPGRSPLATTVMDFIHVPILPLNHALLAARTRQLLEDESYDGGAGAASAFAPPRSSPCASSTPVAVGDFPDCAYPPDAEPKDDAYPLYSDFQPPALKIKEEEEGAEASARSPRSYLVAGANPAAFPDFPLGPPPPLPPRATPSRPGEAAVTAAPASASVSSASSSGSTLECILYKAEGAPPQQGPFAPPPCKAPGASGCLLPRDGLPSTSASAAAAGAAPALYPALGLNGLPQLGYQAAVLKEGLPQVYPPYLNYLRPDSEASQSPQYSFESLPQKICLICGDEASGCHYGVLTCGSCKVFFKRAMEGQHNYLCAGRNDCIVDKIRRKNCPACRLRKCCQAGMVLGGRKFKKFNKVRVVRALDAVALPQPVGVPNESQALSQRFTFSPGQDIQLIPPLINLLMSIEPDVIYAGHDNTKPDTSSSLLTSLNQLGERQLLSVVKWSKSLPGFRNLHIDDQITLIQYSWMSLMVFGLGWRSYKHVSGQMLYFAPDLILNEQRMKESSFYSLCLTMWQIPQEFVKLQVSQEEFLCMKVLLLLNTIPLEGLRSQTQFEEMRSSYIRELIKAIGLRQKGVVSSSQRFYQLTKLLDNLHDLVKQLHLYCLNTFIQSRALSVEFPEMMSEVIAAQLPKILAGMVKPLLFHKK

glucocorticoid receptor = target: T2, glucocorticoid receptor (Homo sapiens, UniProt P04150); parameters: expressed in transfected cells; host or cells: COS 7 (African green monkey kidney, deficient in endogenous GR); settings: in-vitro, other investigators; cited from earlier work
T2 sequence (P04150 1-777): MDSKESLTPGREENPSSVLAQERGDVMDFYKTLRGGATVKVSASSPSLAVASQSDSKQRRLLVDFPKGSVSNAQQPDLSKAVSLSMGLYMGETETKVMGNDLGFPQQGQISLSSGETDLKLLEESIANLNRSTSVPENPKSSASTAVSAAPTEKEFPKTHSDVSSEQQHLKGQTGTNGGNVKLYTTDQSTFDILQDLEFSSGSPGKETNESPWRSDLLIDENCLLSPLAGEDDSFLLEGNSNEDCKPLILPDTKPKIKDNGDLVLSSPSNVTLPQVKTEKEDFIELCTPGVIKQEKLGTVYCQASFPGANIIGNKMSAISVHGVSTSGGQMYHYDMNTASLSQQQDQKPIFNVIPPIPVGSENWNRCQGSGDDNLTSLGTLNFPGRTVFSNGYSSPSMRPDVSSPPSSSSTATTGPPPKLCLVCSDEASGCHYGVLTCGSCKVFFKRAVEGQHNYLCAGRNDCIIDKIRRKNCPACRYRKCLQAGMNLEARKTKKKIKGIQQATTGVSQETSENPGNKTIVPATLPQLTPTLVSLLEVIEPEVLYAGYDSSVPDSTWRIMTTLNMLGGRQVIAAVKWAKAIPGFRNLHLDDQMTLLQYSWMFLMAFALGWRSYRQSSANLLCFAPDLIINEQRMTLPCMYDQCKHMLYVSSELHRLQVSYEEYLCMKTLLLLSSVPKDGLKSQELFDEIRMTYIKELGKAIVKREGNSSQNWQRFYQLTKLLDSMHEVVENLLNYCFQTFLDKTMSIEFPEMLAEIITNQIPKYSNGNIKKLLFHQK

wild-type GR = target: T3, wild-type GR (Homo sapiens, UniProt P04150); experiment: Transactivation of the MMTV promoter by wild-type GR; format: cell-based; settings: 100 nM
T3 construct: expressed in transfected cells
T3 sequence (P04150 1-777): T2 sequence (P04150 1-777)

GR Tyr735val = target: T4, GR Tyr735val (Homo sapiens, UniProt P04150, Y735V); experiment: Transactivation of the MMTV promoter by mutant GR Tyr735val; format: cell-based; settings: 100 nM
T4 construct: expressed in transfected cells
T4 sequence (P04150 1-777 Y735V): T2 sequence (P04150 1-777) with Y735V

GR Tyr735phe = target: T5, GR Tyr735phe (Homo sapiens, UniProt P04150, Y735F); experiment: Transactivation of the MMTV promoter by mutant GR Tyr735phe; format: cell-based; settings: 100 nM
T5 construct: expressed in transfected cells
T5 sequence (P04150 1-777 Y735F): T2 sequence (P04150 1-777) with Y735F

GR Tyr735ser = target: T6, GR Tyr735ser (Homo sapiens, UniProt P04150, Y735S); experiment: Transactivation of the MMTV promoter by mutant GR Tyr735ser; format: cell-based; settings: 100 nM
T6 construct: expressed in transfected cells
T6 sequence (P04150 1-777 Y735S): T2 sequence (P04150 1-777) with Y735S

SMILES | desired profile in-vivo [1] | effect on proliferation (CEM-C7A cells; CEM C7A cells) | induction of apoptosis (CEM-C7A cells; CEM C7A cells, 100 nM, three day incubation) | induction of apoptosis (CEM-C7A cells; unpublished data, conditions not given) | activation of the progesterone receptor [2] | selectivity for transrepression over transactivation (glucocorticoid receptor) | induction of MMTV (wild-type GR) | induction of MMTV (GR Tyr735val) | induction of MMTV (GR Tyr735phe) | induction of MMTV (GR Tyr735ser)
C[C@@H]1C[C@H]2[C@@H]3CCC4=CC(=O)C=C[C@]4(C)[C@@]3(F)[C@@H](O)C[C@]2(C)[C@H]1C(=O)CC#N [RU24858, reference compound] | failed to show the desired profile in-vivo | impaired proliferation | did not induce significant apoptosis | does not induce apoptosis | activating the progesterone receptor | 2 fold |  |  |  | 
C[C@]12CCC(=O)C=C1CC[C@@H]1[C@@H]2[C@@H](O)C[C@@]2(C)[C@H]1CC[C@]2(O)C(=O)CO [hydrocortisone] |  |  |  |  |  |  | 18 fold | 10.6 fold | 11 fold | failed to induce the reporter
